Experimental data: patent US20230176038A1, “Methods for Identifying Modulators of Insect Transient Receptor Potential Channels” (BASF Corporation, priority 2019, published 2023)

What was measured:
[1] = biological target: T1, complexes formed by Nanchung protein and Inactive protein (Nan + Iav) (Drosophila melanogaster, UniProt Q9VUD5+Q9W3W0); experiment: Competition binding with [3H]-afidopyropen to membranes from CHO-K1 cells co-expressing Nanchung and Inactive; conditions: FIG. 6, [3H]-afidopyropen displacement, Nan (SEQ ID NO 7) C-terminal HA/mCherry, Iav (NP_572353) C-terminal FLAG/AcGFP, pH 7.4, 3 h room temperature, Cheng-Prusoff, read-out: Nan + Iav (Nanchung:Inactive complex) Ki
T1 construct: full-length Iav C-terminally fused to FLAG tags and AcGFP; adenoviral co-expression in CHO-K1, membranes; [3H]-afidopyropen tracer
T1 sequence (Q9VUD5 1-833): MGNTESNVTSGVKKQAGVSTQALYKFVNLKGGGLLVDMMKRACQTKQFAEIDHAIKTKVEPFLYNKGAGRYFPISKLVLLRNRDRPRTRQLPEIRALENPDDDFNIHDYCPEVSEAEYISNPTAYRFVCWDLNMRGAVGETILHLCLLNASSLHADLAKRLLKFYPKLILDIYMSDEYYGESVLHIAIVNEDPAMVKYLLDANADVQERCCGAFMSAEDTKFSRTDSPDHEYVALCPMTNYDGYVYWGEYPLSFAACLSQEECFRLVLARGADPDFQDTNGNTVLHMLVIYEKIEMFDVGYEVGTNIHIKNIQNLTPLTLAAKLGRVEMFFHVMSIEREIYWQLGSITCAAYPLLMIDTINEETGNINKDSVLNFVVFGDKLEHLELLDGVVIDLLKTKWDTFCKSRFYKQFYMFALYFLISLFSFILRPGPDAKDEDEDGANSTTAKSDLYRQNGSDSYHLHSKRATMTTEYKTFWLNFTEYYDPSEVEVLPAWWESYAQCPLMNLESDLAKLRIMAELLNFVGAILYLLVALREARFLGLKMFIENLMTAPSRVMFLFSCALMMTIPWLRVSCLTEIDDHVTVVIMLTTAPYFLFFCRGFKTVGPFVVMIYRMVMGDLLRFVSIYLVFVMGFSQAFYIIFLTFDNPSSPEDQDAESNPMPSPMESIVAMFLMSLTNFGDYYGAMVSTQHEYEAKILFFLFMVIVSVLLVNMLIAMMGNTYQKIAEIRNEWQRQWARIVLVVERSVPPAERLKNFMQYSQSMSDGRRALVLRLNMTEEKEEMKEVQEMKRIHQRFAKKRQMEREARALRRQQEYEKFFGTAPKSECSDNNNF
T1 sequence (Q9W3W0 1-1123): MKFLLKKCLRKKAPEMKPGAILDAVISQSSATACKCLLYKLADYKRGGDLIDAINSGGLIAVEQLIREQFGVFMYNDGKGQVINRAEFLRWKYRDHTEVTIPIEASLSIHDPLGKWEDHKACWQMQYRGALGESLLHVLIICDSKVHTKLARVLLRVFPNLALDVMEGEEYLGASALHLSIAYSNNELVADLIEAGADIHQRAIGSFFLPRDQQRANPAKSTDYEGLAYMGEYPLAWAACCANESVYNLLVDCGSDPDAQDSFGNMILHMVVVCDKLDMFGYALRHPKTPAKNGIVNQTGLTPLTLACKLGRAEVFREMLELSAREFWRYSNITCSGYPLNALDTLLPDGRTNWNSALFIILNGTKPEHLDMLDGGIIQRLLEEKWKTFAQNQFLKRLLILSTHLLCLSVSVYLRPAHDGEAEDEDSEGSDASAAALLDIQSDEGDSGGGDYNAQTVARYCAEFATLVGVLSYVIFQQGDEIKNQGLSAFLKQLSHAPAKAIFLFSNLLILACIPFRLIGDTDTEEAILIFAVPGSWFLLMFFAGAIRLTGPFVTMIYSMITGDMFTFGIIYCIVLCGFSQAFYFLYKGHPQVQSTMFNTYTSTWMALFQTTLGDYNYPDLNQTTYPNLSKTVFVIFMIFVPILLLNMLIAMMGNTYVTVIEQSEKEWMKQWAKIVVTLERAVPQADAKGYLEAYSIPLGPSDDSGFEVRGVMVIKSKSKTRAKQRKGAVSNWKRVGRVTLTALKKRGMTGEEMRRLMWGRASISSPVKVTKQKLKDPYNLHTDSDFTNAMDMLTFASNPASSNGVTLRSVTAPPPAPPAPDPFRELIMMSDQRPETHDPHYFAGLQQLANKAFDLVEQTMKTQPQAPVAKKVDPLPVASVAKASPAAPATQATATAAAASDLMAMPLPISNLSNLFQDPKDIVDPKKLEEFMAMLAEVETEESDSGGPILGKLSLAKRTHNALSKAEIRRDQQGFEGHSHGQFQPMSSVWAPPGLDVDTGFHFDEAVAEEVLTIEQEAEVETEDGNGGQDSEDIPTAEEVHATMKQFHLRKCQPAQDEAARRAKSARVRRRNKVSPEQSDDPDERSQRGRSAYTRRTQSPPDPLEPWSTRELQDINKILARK

[2] = biological target: T2, complexes formed by Nanchung and Water witch proteins (Wtrw + Nan) (Drosophila melanogaster, UniProt Q9VHY7+Q9VUD5); experiment: Calcium mobilization (fluo-4AM, FLIPR-TETRA) in CHO-K1 cells co-expressing Water witch and Nanchung; format: cell-based
T2 construct: adenoviral co-expression in CHO-K1 cells, fluo-4 calcium FLIPR
T2 sequence (Q9VUD5 1-833): T1 sequence (Q9VUD5 1-833)
T2 sequence (Q9VHY7 1-986): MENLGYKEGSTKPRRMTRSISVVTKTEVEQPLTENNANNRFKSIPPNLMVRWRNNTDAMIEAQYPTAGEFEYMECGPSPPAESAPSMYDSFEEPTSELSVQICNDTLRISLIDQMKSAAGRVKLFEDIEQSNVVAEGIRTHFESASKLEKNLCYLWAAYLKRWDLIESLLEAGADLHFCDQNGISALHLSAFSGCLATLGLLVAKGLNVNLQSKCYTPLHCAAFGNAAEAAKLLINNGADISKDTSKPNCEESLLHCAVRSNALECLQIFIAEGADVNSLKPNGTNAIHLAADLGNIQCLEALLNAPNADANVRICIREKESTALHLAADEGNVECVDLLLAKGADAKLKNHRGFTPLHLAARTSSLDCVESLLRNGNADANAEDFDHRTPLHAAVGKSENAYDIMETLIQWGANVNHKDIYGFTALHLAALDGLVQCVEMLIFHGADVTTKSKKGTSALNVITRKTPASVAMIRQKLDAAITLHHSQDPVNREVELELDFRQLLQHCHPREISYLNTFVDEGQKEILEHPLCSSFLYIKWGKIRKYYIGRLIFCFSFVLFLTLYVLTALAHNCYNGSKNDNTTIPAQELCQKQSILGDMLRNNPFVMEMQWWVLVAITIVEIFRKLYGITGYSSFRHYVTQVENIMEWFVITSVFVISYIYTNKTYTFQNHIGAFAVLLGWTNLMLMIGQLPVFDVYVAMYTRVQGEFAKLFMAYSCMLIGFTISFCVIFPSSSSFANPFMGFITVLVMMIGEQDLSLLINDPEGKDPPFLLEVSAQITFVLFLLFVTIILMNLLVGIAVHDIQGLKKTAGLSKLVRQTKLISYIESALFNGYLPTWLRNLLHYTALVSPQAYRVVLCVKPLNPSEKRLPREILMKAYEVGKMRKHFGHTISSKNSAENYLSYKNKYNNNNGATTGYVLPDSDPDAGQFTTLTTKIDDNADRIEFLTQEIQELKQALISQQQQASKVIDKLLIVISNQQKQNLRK

[3] = biological target: T3, complexes formed by Nanchung protein and Water witch protein (Nan + Wtrw) (Drosophila melanogaster, UniProt Q9VHY7+Q9VUD5); experiment: Competition binding with [3H]-afidopyropen to membranes from CHO-K1 cells co-expressing Nanchung and Water witch; conditions: FIG. 6, [3H]-afidopyropen displacement, Nan (SEQ ID NO 7) C-terminal HA/mCherry, Wtrw (SEQ ID NO 63) C-terminal FLAG/AcGFP, pH 7.4, 3 h room temperature, Cheng-Prusoff, read-out: Nan + Wtrw (Nanchung:Water witch complex) Ki
T3 construct: adenoviral co-expression in CHO-K1, membranes; [3H]-afidopyropen tracer
T3 sequence (Q9VUD5 1-833): T1 sequence (Q9VUD5 1-833)
T3 sequence (Q9VHY7 1-986): T2 sequence (Q9VHY7 1-986)

SMILES: CC1=NNC(=O)N(/N=C/c2cccnc2)C1 [Pymetrozine, pymetrozine]
- Ki [1]: 43 nM
- EC50 [2]: 96 nM
- Ki [3]: 102 nM
